Laboratory results from the NIST ThermoML archive (doi:10.1016/j.jct.2018.11.011).
± gives the expanded uncertainty stated by the source.

Assay: molar heat capacity at constant pressure
Settings: 101.33 kPa, Crystal, Small (less than 1 g) adiabatic calorimetry

With `O=C([O][Sb]([c]1ccccc1)([c]1ccccc1)([c]1ccccc1)[c]1ccccc1)c1ccccc1` [tetraphenylantimony benzoate] the “molar heat capacity at constant pressure” value (5 K) was 1.72 ± 0.083 J/K/mol, the “molar heat capacity at constant pressure” value (5.54 K) was 2.34 ± 0.11 J/K/mol and the “molar heat capacity at constant pressure” value (5.81 K) was 2.55 ± 0.12 J/K/mol. For the same molecule, the “molar heat capacity at constant pressure” value (6.27 K) was 3.24 ± 0.14 J/K/mol, the “molar heat capacity at constant pressure” value (6.56 K) was 3.56 ± 0.16 J/K/mol and the “molar heat capacity at constant pressure” value (6.92 K) was 4.25 ± 0.18 J/K/mol. For the same molecule, the “molar heat capacity at constant pressure” value (7.71 K) was 5.93 ± 0.26 J/K/mol, the “molar heat capacity at constant pressure” value (7.98 K) was 6.39 ± 0.27 J/K/mol and the “molar heat capacity at constant pressure” value (8.34 K) was 7.12 ± 0.31 J/K/mol. For the same molecule, the “molar heat capacity at constant pressure” value (8.69 K) was 7.77 ± 0.33 J/K/mol, the “molar heat capacity at constant pressure” value (9.05 K) was 8.56 ± 0.33 J/K/mol and the “molar heat capacity at constant pressure” value (9.58 K) was 9.73 ± 0.42 J/K/mol. The “molar heat capacity at constant pressure” value (10 K) was 10.9 ± 0.5 J/K/mol, the “molar heat capacity at constant pressure” value (10.05 K) was 10.9 ± 0.5 J/K/mol and the “molar heat capacity at constant pressure” value (10.43 K) was 12 ± 0.5 J/K/mol. The “molar heat capacity at constant pressure” value (10.82 K) was 13.1 ± 0.58 J/K/mol, the “molar heat capacity at constant pressure” value (11.21 K) was 14.2 ± 0.58 J/K/mol and the “molar heat capacity at constant pressure” value (11.44 K) was 14.8 ± 0.58 J/K/mol. The “molar heat capacity at constant pressure” value (11.66 K) was 15.5 ± 0.67 J/K/mol, the “molar heat capacity at constant pressure” value (12.08 K) was 16.7 ± 0.67 J/K/mol and the “molar heat capacity at constant pressure” value (12.66 K) was 18.5 ± 0.75 J/K/mol. The “molar heat capacity at constant pressure” value (13.36 K) was 20.5 ± 0.83 J/K/mol, the “molar heat capacity at constant pressure” value (14.03 K) was 22.5 ± 0.91 J/K/mol and the “molar heat capacity at constant pressure” value (14.57 K) was 24.4 ± 1 J/K/mol. The “molar heat capacity at constant pressure” value (15 K) was 25.6 ± 1.1 J/K/mol, the “molar heat capacity at constant pressure” value (15.26 K) was 26.4 ± 0.42 J/K/mol and the “molar heat capacity at constant pressure” value (15.94 K) was 28.6 ± 0.42 J/K/mol. For the same molecule, the “molar heat capacity at constant pressure” value (16.62 K) was 30.87 ± 0.44 J/K/mol, the “molar heat capacity at constant pressure” value (17.29 K) was 33.05 ± 0.47 J/K/mol and the “molar heat capacity at constant pressure” value (17.96 K) was 35.26 ± 0.49 J/K/mol. For the same molecule, the “molar heat capacity at constant pressure” value (18.62 K) was 37.36 ± 0.52 J/K/mol, the “molar heat capacity at constant pressure” value (18.8 K) was 38.09 ± 0.52 J/K/mol and the “molar heat capacity at constant pressure” value (19.31 K) was 39.63 ± 0.54 J/K/mol. The “molar heat capacity at constant pressure” value (19.97 K) was 41.7 ± 0.56 J/K/mol, the “molar heat capacity at constant pressure” value (20 K) was 41.81 ± 0.57 J/K/mol and the “molar heat capacity at constant pressure” value (20.6 K) was 43.6 ± 0.58 J/K/mol. For the same molecule, the “molar heat capacity at constant pressure” value (22.51 K) was 49.65 ± 0.64 J/K/mol, the “molar heat capacity at constant pressure” value (25 K) was 57.77 ± 0.72 J/K/mol and the “molar heat capacity at constant pressure” value (25.94 K) was 60.95 ± 0.75 J/K/mol. The “molar heat capacity at constant pressure” value (29.45 K) was 71.99 ± 0.84 J/K/mol, the “molar heat capacity at constant pressure” value (30 K) was 73.7 ± 0.81 J/K/mol and the “molar heat capacity at constant pressure” value (31.45 K) was 78.36 ± 0.86 J/K/mol. The “molar heat capacity at constant pressure” value (33 K) was 82.85 ± 0.91 J/K/mol, the “molar heat capacity at constant pressure” value (33.62 K) was 84.64 ± 0.91 J/K/mol and the “molar heat capacity at constant pressure” value (35 K) was 88.8 ± 1 J/K/mol. The “molar heat capacity at constant pressure” value (35.87 K) was 91.21 ± 1 J/K/mol, the “molar heat capacity at constant pressure” value (36.5 K) was 93.12 ± 1 J/K/mol and the “molar heat capacity at constant pressure” value (40 K) was 102.8 ± 1.1 J/K/mol. The “molar heat capacity at constant pressure” value (40.06 K) was 103.7 ± 0.58 J/K/mol, the “molar heat capacity at constant pressure” value (43 K) was 111 ± 0.67 J/K/mol and the “molar heat capacity at constant pressure” value (45 K) was 115.8 ± 0.67 J/K/mol. For the same molecule, the “molar heat capacity at constant pressure” value (46.68 K) was 120.9 ± 0.67 J/K/mol, the “molar heat capacity at constant pressure” value (49.76 K) was 127.9 ± 0.75 J/K/mol and the “molar heat capacity at constant pressure” value (50 K) was 128 ± 0.75 J/K/mol. The “molar heat capacity at constant pressure” value (53.38 K) was 136.9 ± 0.75 J/K/mol, the “molar heat capacity at constant pressure” value (57.02 K) was 145.6 ± 0.83 J/K/mol and the “molar heat capacity at constant pressure” value (60 K) was 151.4 ± 0.83 J/K/mol. The “molar heat capacity at constant pressure” value (60.66 K) was 154.2 ± 0.91 J/K/mol, the “molar heat capacity at constant pressure” value (64.31 K) was 162 ± 0.91 J/K/mol and the “molar heat capacity at constant pressure” value (67.97 K) was 169.5 ± 0.91 J/K/mol. The “molar heat capacity at constant pressure” value (70 K) was 174.2 ± 1 J/K/mol, the “molar heat capacity at constant pressure” value (71.63 K) was 177 ± 1 J/K/mol and the “molar heat capacity at constant pressure” value (75.29 K) was 185.6 ± 1.1 J/K/mol. For the same molecule, the “molar heat capacity at constant pressure” value (78 K) was 192 ± 1.1 J/K/mol, the “molar heat capacity at constant pressure” value (80 K) was 195.9 ± 1.1 J/K/mol and the “molar heat capacity at constant pressure” value (82.52 K) was 200.4 ± 1.1 J/K/mol. For the same molecule, the “molar heat capacity at constant pressure” value (83.53 K) was 202.5 ± 1.2 J/K/mol, the “molar heat capacity at constant pressure” value (85.67 K) was 207 ± 1.2 J/K/mol and the “molar heat capacity at constant pressure” value (88.37 K) was 212.3 ± 1.2 J/K/mol. The “molar heat capacity at constant pressure” value (90 K) was 214.8 ± 1.2 J/K/mol, the “molar heat capacity at constant pressure” value (90.22 K) was 215.5 ± 1.2 J/K/mol and the “molar heat capacity at constant pressure” value (92.48 K) was 218.9 ± 1.2 J/K/mol. The “molar heat capacity at constant pressure” value (93.76 K) was 221 ± 1.2 J/K/mol, the “molar heat capacity at constant pressure” value (95.63 K) was 223.7 ± 1.2 J/K/mol and the “molar heat capacity at constant pressure” value (99.16 K) was 228.6 ± 1.2 J/K/mol. For the same molecule, the “molar heat capacity at constant pressure” value (100 K) was 229.7 ± 1.2 J/K/mol, the “molar heat capacity at constant pressure” value (102.7 K) was 234 ± 1.2 J/K/mol and the “molar heat capacity at constant pressure” value (106.23 K) was 240 ± 1.2 J/K/mol. For the same molecule, the “molar heat capacity at constant pressure” value (109.78 K) was 244.9 ± 1.2 J/K/mol, the “molar heat capacity at constant pressure” value (113.32 K) was 250.2 ± 1.3 J/K/mol and the “molar heat capacity at constant pressure” value (116 K) was 255 ± 1.3 J/K/mol. The “molar heat capacity at constant pressure” value (119.8 K) was 262 ± 1.3 J/K/mol, the “molar heat capacity at constant pressure” value (120 K) was 262 ± 1.3 J/K/mol and the “molar heat capacity at constant pressure” value (123.36 K) was 267.2 ± 1.4 J/K/mol. For the same molecule, the “molar heat capacity at constant pressure” value (126.75 K) was 273.3 ± 1.4 J/K/mol, the “molar heat capacity at constant pressure” value (128 K) was 275.2 ± 1.4 J/K/mol and the “molar heat capacity at constant pressure” value (132.8 K) was 282.4 ± 1.5 J/K/mol. For the same molecule, the “molar heat capacity at constant pressure” value (136 K) was 287 ± 1.5 J/K/mol, the “molar heat capacity at constant pressure” value (139.71 K) was 293.3 ± 1.5 J/K/mol and the “molar heat capacity at constant pressure” value (140 K) was 293.6 ± 1.5 J/K/mol. The “molar heat capacity at constant pressure” value (144.47 K) was 301.3 ± 1.6 J/K/mol, the “molar heat capacity at constant pressure” value (146.16 K) was 303.1 ± 1.6 J/K/mol and the “molar heat capacity at constant pressure” value (151.28 K) was 310.8 ± 1.6 J/K/mol. For the same molecule, the “molar heat capacity at constant pressure” value (155 K) was 315 ± 1.7 J/K/mol, the “molar heat capacity at constant pressure” value (158.48 K) was 321.9 ± 1.7 J/K/mol and the “molar heat capacity at constant pressure” value (160 K) was 324.2 ± 1.7 J/K/mol. For the same molecule, the “molar heat capacity at constant pressure” value (161 K) was 326 ± 1.7 J/K/mol, the “molar heat capacity at constant pressure” value (164.87 K) was 332.4 ± 1.7 J/K/mol and the “molar heat capacity at constant pressure” value (168.1 K) was 336.4 ± 1.7 J/K/mol. The “molar heat capacity at constant pressure” value (169.28 K) was 338.2 ± 1.7 J/K/mol and the “molar heat capacity at constant pressure” value (172.52 K) was 344.3 ± 1.7 J/K/mol.
